Earlier results on 50 molecules are cited in article PMC12281572.

This data set can be described thus: FTIR, 4-fluorophenol as donor (the pK_BHX database, per the paper). The following applies: CCl4; 25 C.

Values joined by “and” are separate entries in the source; they are usually repeats but may differ in a detail not shown here. Equal values may be shown once.

As for `CC1=CCCCC1`, the “pK_BHX (log10 Kf of the 1:1 H-bond complex with 4-fluorophenol, by FTIR)” value is -0.74 log units.

For the molecule `CC(=O)N1CCCCC1`, the “pK_BHX (log10 Kf of the 1:1 H-bond complex with 4-fluorophenol, by FTIR)” value is 2.45 log units.

With `C1OCOCO1`, the “pK_BHX (log10 Kf of the 1:1 H-bond complex with 4-fluorophenol, by FTIR)” value is listed as 0.02 log units.

Take `Brc1cncnc1`: the “pK_BHX (log10 Kf of the 1:1 H-bond complex with 4-fluorophenol, by FTIR)” value is on record as 0.59 log units.

As for `C1N2CN3CN1CN(C2)C3`, the “pK_BHX (log10 Kf of the 1:1 H-bond complex with 4-fluorophenol, by FTIR)” value is listed as 1.33 log units.

In the case of `CN(C(=Nc1ccc(Br)cc1)c1ccccc1)c1ccc(Br)cc1`, the “pK_BHX (log10 Kf of the 1:1 H-bond complex with 4-fluorophenol, by FTIR)” value was 0.99 log units.

On to `CC(C)(C)c1ccccc1`, for which the “pK_BHX (log10 Kf of the 1:1 H-bond complex with 4-fluorophenol, by FTIR)” value is recorded as -0.32 log units.

Regarding `CC(=Nc1ccc(C)cc1)N(C)c1ccc(C)cc1`, the “pK_BHX (log10 Kf of the 1:1 H-bond complex with 4-fluorophenol, by FTIR)” value is reported as 1.82 log units.

On to `Cc1ccc(C)c(C)c1C`, for which the “pK_BHX (log10 Kf of the 1:1 H-bond complex with 4-fluorophenol, by FTIR)” value is -0.14 log units.

For the molecule `CC(C)(C)Cl`, the “pK_BHX (log10 Kf of the 1:1 H-bond complex with 4-fluorophenol, by FTIR)” value was -0.28 log units.

Take `Cc1ccnc2c1ccc1c(C)ccnc12`: the “pK_BHX (log10 Kf of the 1:1 H-bond complex with 4-fluorophenol, by FTIR)” value is given as 3.34 log units.

For `CC(C)c1cc(C(C)C)cc(C(C)C)c1`, the “pK_BHX (log10 Kf of the 1:1 H-bond complex with 4-fluorophenol, by FTIR)” value is -0.18 log units.

As to `CNC1CCCCC1`, the “pK_BHX (log10 Kf of the 1:1 H-bond complex with 4-fluorophenol, by FTIR)” value was 2.24 log units.

On to `Cc1ccc(C)cc1`, for which the “pK_BHX (log10 Kf of the 1:1 H-bond complex with 4-fluorophenol, by FTIR)” value is recorded as -0.29 log units.

On to `c1ccc2oncc2c1`, for which the “pK_BHX (log10 Kf of the 1:1 H-bond complex with 4-fluorophenol, by FTIR)” value is reported as 0.68 log units.

`Clc1ccccn1`: the “pK_BHX (log10 Kf of the 1:1 H-bond complex with 4-fluorophenol, by FTIR)” value is reported as 1.05 log units.

For `c1ccc2scnc2c1`, the “pK_BHX (log10 Kf of the 1:1 H-bond complex with 4-fluorophenol, by FTIR)” value is reported as 1.29 log units.

For the molecule `C=CCN(C)C`, the “pK_BHX (log10 Kf of the 1:1 H-bond complex with 4-fluorophenol, by FTIR)” value is listed as 1.92 log units.

Regarding `c1ccc(-c2ccccn2)nc1`, the “pK_BHX (log10 Kf of the 1:1 H-bond complex with 4-fluorophenol, by FTIR)” value is reported as 1.15 log units.

As to `c1ccnnc1`, the “pK_BHX (log10 Kf of the 1:1 H-bond complex with 4-fluorophenol, by FTIR)” value is recorded as 1.65 log units.

`C=CCSC`: the “pK_BHX (log10 Kf of the 1:1 H-bond complex with 4-fluorophenol, by FTIR)” value is given as 0.08 log units.

In the case of `C#Cc1ccccc1`, the “pK_BHX (log10 Kf of the 1:1 H-bond complex with 4-fluorophenol, by FTIR)” value was -0.44 log units and -0.6 log units.

Turning to `CCOC(=O)c1ccc(C(=O)OCC)cc1`, the “pK_BHX (log10 Kf of the 1:1 H-bond complex with 4-fluorophenol, by FTIR)” value was 0.76 log units.

In the case of `O=CN(c1ccccc1)c1ccccc1`, the “pK_BHX (log10 Kf of the 1:1 H-bond complex with 4-fluorophenol, by FTIR)” value is 1.41 log units.

On to `Fc1cccnc1`, for which the “pK_BHX (log10 Kf of the 1:1 H-bond complex with 4-fluorophenol, by FTIR)” value is recorded as 1.35 log units.

On to `CC(C)(C)Br`, for which the “pK_BHX (log10 Kf of the 1:1 H-bond complex with 4-fluorophenol, by FTIR)” value was -0.22 log units.

On to `CC(=Nc1ccccc1)Nc1ccccc1`, for which the “pK_BHX (log10 Kf of the 1:1 H-bond complex with 4-fluorophenol, by FTIR)” value is listed as 1.66 log units.

In the case of `COc1ccncc1`, the “pK_BHX (log10 Kf of the 1:1 H-bond complex with 4-fluorophenol, by FTIR)” value is on record as 2.13 log units.

For `CC1(C)CCC(C)(C)O1`, the “pK_BHX (log10 Kf of the 1:1 H-bond complex with 4-fluorophenol, by FTIR)” value was 1.43 log units.

In the case of `NC1CCCCC1`, the “pK_BHX (log10 Kf of the 1:1 H-bond complex with 4-fluorophenol, by FTIR)” value is listed as 2.29 log units.

In the case of `Brc1ccc(N=C(Nc2ccc(Br)cc2)c2ccccc2)cc1`, the “pK_BHX (log10 Kf of the 1:1 H-bond complex with 4-fluorophenol, by FTIR)” value is recorded as 0.87 log units.

As to `N#Cc1cc(Cl)cc(Cl)c1`, the “pK_BHX (log10 Kf of the 1:1 H-bond complex with 4-fluorophenol, by FTIR)” value is on record as 0.52 log units.

`O=C1c2ccccc2Cc2ccccc21`: the “pK_BHX (log10 Kf of the 1:1 H-bond complex with 4-fluorophenol, by FTIR)” value is 1.25 log units.

Consider `CC(C)CN=CN(C)C`, for which the “pK_BHX (log10 Kf of the 1:1 H-bond complex with 4-fluorophenol, by FTIR)” value is 2.52 log units.

In the case of `O=C1CCCCC1`, the “pK_BHX (log10 Kf of the 1:1 H-bond complex with 4-fluorophenol, by FTIR)” value is 1.39 log units.

For `CC(=Nc1ccc(Br)cc1)Nc1ccccc1`, the “pK_BHX (log10 Kf of the 1:1 H-bond complex with 4-fluorophenol, by FTIR)” value is listed as 1.36 log units.

In the case of `CC(=O)Nc1ccccc1`, the “pK_BHX (log10 Kf of the 1:1 H-bond complex with 4-fluorophenol, by FTIR)” value was 1.69 log units.

For the molecule `CC1CCN(c2ccncc2)CC1`, the “pK_BHX (log10 Kf of the 1:1 H-bond complex with 4-fluorophenol, by FTIR)” value was 2.68 log units.

As to `O=C1CCCC1`, the “pK_BHX (log10 Kf of the 1:1 H-bond complex with 4-fluorophenol, by FTIR)” value is 1.27 log units.

Turning to `CC(=O)N(c1ccccc1)c1ccccc1`, the “pK_BHX (log10 Kf of the 1:1 H-bond complex with 4-fluorophenol, by FTIR)” value is 1.94 log units.

`C1CSCSC1`: the “pK_BHX (log10 Kf of the 1:1 H-bond complex with 4-fluorophenol, by FTIR)” value is listed as -0.06 log units.

On to `O=[N+]([O-])c1cccc(N=C(Nc2ccccc2)c2ccccc2)c1`, for which the “pK_BHX (log10 Kf of the 1:1 H-bond complex with 4-fluorophenol, by FTIR)” value is on record as 0.86 log units.

As for `CCSCC`, the “pK_BHX (log10 Kf of the 1:1 H-bond complex with 4-fluorophenol, by FTIR)” value was 0.25 log units.

Turning to `CCN(CC)c1ccc(C(=O)c2ccc(N(CC)CC)cc2)cc1`, the “pK_BHX (log10 Kf of the 1:1 H-bond complex with 4-fluorophenol, by FTIR)” value is reported as 2.33 log units.

Take `CNCCC#N`: the “pK_BHX (log10 Kf of the 1:1 H-bond complex with 4-fluorophenol, by FTIR)” value is 1.37 log units.

With `NCc1cc(F)cc(F)c1`, the “pK_BHX (log10 Kf of the 1:1 H-bond complex with 4-fluorophenol, by FTIR)” value was 1.28 log units.

As for `O=C(N(c1ccccc1)c1ccccc1)N(c1ccccc1)c1ccccc1`, the “pK_BHX (log10 Kf of the 1:1 H-bond complex with 4-fluorophenol, by FTIR)” value is 1.74 log units.

Take `CN(C)C=NC(=O)N(C)C`: the “pK_BHX (log10 Kf of the 1:1 H-bond complex with 4-fluorophenol, by FTIR)” value is recorded as 2.92 log units.

For the molecule `COC(=O)c1ccccc1OC`, the “pK_BHX (log10 Kf of the 1:1 H-bond complex with 4-fluorophenol, by FTIR)” value is 1.49 log units.

Regarding `COc1cc(C#N)cc(OC)c1`, the “pK_BHX (log10 Kf of the 1:1 H-bond complex with 4-fluorophenol, by FTIR)” value was 0.78 log units.
